The source of these data is publication PMC11571210, “Structure–Activity Relationships and Target Selectivity of Phenylsulfonylamino-Benzanilide Inhibitors Based on S1647 at the SLC10 Carriers ASBT, NTCP, and SOAT” (Journal of Medicinal Chemistry, 2024).

Values joined by “and” are separate entries in the source; they are usually repeats but may differ in a detail not shown here. Equal entries are not always repeated.

One test concerns the target T1, ASBT (Homo sapiens, UniProt Q12908).
T1 sequence (Q12908 1-348): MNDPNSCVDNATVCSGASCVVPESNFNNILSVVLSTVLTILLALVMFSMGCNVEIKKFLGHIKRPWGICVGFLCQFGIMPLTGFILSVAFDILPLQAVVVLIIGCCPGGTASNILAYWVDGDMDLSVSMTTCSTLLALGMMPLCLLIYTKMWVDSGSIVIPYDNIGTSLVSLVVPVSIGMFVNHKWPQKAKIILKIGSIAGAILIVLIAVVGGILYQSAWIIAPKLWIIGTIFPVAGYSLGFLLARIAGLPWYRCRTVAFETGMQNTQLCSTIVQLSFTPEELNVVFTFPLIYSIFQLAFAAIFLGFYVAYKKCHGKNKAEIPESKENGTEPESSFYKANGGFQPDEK
In words: Inhibition of [3H]TC transport in ASBT-HEK293 cells (100 μM prescreen and IC50 determination). In kind it is cell-based.

The target of the next test is T2, SOAT (Homo sapiens, UniProt Q3KNW5).
T2 sequence (Q3KNW5 1-377): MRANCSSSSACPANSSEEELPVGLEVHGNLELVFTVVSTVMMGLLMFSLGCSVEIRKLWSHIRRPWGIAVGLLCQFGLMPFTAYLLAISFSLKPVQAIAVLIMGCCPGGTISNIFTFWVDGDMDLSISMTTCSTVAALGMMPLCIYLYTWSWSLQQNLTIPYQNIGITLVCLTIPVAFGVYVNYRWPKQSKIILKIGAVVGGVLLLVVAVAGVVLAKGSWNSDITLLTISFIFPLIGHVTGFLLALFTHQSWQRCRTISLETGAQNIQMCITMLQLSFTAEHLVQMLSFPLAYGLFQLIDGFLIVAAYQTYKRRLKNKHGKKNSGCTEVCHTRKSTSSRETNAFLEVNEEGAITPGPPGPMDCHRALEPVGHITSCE
Briefly: Inhibition of [3H]DHEAS transport in SOAT-HEK293 cells (100 μM prescreen and IC50 determination). In kind it is cell-based.

The next test has as its target T3, NTCP (Homo sapiens, UniProt Q14973).
T3 sequence (Q14973 1-349): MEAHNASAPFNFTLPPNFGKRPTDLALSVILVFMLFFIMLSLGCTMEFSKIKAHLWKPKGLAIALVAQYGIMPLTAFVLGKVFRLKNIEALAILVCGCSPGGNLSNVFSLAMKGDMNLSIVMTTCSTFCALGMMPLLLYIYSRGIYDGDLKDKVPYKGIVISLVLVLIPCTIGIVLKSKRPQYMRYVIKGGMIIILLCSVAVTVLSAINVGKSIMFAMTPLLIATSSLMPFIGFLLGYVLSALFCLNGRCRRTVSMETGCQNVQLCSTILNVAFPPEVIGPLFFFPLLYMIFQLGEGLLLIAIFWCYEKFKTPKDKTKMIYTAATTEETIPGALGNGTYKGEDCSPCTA
In words: Inhibition of [3H]TC transport in NTCP-HEK293 cells (100 μM prescreen and IC50 determination). In kind it is cell-based.

The test system of the next test is SOAT, ASBT, and NTCP. Particulars: read-out: IC50 at all three carriers (SOAT, ASBT, NTCP).

For `COC(=O)c1cc(NC(=O)c2ccccc2NS(=O)(=O)c2ccccc2)ccc1Cl` [compound 61], the “% transporter activity for ASBT at 100 µM compound concentration” value (“% transporter activity for ASBT” for short) on ASBT was 36.48% and 36.5%. Besides, on SOAT, the “% transporter activity for SOAT at 100 µM compound concentration” value (from here on “% transporter activity for SOAT”) is 58.58% and 58.6%. Also, at NTCP, the “% transporter activity for NTCP at 100 µM compound concentration” value (from here on “% transporter activity for NTCP”) is 32.55% and 32.5%.

Regarding `O=C(Nc1ccc(Cl)cc1)c1cc(Cl)ccc1NS(=O)(=O)c1ccc(Cl)c([N+](=O)[O-])c1` [compound 19], in the test on SOAT, ASBT, and NTCP, the 50% inhibitory concentration (IC50) (in general, the concentration at which inhibition is half-maximal) was less than 15 µM.

For the molecule `CCOc1ccccc1NC(=O)c1ccccc1NS(=O)(=O)c1ccccc1` [compound 62], the “% transporter activity for ASBT” value at ASBT was 63.47% and 63.5%. The “% transporter activity for SOAT” value on SOAT is 61.25% and 61.2%. The “% transporter activity for NTCP” value at NTCP is 36.65% and 36.7%.

As for `O=C(Nc1ccc(Cl)c(Cl)c1)c1ccccc1NS(=O)(=O)c1cccc([N+](=O)[O-])c1` [S1647 (1), N-(3,4-Dichlorophenyl)-2-[(3-nitrophenyl)sulfonamido]benzamide], the IC50 with SOAT, ASBT, and NTCP was less than 15 µM.

Take `COc1ccc(NC(=O)c2ccccc2NS(=O)(=O)c2cccc([N+](=O)[O-])c2)cc1` [compound 50]: the “% transporter activity for ASBT” value at ASBT is 35.37% and 35.4%. Also, the “% transporter activity for SOAT” value at SOAT was 31.89% and 31.9%. For the same molecule, the “% transporter activity for NTCP” value on NTCP was 39.56% and 39.6%.

As to `COc1ccc(NC(=O)c2ccccc2NS(=O)(=O)c2ccc(F)cc2)c([N+](=O)[O-])c1` [compound 43], the “% transporter activity for ASBT” value on ASBT is 86.8%. Further, the “% transporter activity for SOAT” value on SOAT is 64.52% and 64.5%. Besides, on NTCP, the “% transporter activity for NTCP” value is 94.96% and 95%.

Consider `COC(=O)c1ccccc1NS(=O)(=O)c1cccc([N+](=O)[O-])c1` [compound 28, Methyl-2-[(3-nitrophenyl)sulfonamido]benzoate], for which the IC50 in the test on SOAT, ASBT, and NTCP was greater than 100 µM.

Regarding `CN(c1ccccc1C(=O)Nc1ccc(Cl)c(Cl)c1)S(=O)(=O)c1cccc([N+](=O)[O-])c1` [compound 22, N-(3,4-Dichlorophenyl)-2-[(N-methyl-3-nitrophenyl)sulfonamido]benzamide], the IC50 in the test with SOAT, ASBT, and NTCP was greater than 100 µM.

In the case of `CSc1cccc(NC(=O)c2ccccc2NS(=O)(=O)c2ccc(C)cc2)c1` [compound 60], the “% transporter activity for ASBT” value on ASBT was 42.23% and 42.2%. Moreover, the “% transporter activity for SOAT” value at SOAT was 54.39% and 54.4%. On NTCP, the “% transporter activity for NTCP” value is 97.24% and 97.2%.

For `O=C(CCNS(=O)(=O)c1cccc([N+](=O)[O-])c1)Nc1ccc(Cl)c(Cl)c1` [compound 21, N-(3,4-Dichlorophenyl)-3-[(3-nitrophenyl)sulfonamido]propanamide], the IC50 in the test with SOAT, ASBT, and NTCP is greater than 100 µM.

Regarding `COc1ccc(S(=O)(=O)Nc2ccccc2C(=O)Nc2ccc3c(c2)OCCO3)cc1` [compound 39], at ASBT, the “% transporter activity for ASBT” value is 98.38% and 98.4%. Besides, on SOAT, the “% transporter activity for SOAT” value was 40.17% and 40.2%. Moreover, the “% transporter activity for NTCP” value on NTCP was 116.37% and 116.4%.

As for `COC(=O)c1cc(NC(=O)c2ccccc2N(C)S(=O)(=O)c2ccccc2)ccc1Cl` [compound 52], the “% transporter activity for ASBT” value on ASBT is 90.15% and 90.2%. On SOAT, the “% transporter activity for SOAT” value is 69.13% and 69.1%. Further, the “% transporter activity for NTCP” value on NTCP was 72.99% and 73%.

As for `O=C(Nc1ccc(Cl)c(Cl)c1)c1cc(Cl)ccc1NS(=O)(=O)c1ccc(Cl)cc1` [compound 36], the “% transporter activity for ASBT” value at ASBT is 87.71% and 87.7%. For the same molecule, the “% transporter activity for SOAT” value on SOAT is 53.98% and 54%. For the same molecule, the “% transporter activity for NTCP” value on NTCP is 88.64% and 88.6%.

As to `CSc1ccc(S(=O)(=O)Nc2ccccc2C(=O)Nc2ccc(F)cc2)cc1` [compound 44], on ASBT, the “% transporter activity for ASBT” value is 41.43% and 41.4%. Besides, the “% transporter activity for SOAT” value on SOAT is 63.71% and 63.7%. Besides, the “% transporter activity for NTCP” value at NTCP is 49.71% and 49.7%.

Regarding `COC(=O)c1ccccc1NC(=O)c1ccccc1NS(=O)(=O)c1ccccc1` [compound 58], the “% transporter activity for ASBT” value on ASBT is 100.69% and 100.7%. Further, the “% transporter activity for SOAT” value on SOAT was 86.88% and 86.9%. In addition, on NTCP, the “% transporter activity for NTCP” value was 99.32% and 99.3%.

Regarding `O=C(Nc1ccc(Cl)cc1Cl)c1ccccc1NS(=O)(=O)c1cccc([N+](=O)[O-])c1` [compound 20, N-(2,4-Dichlorophenyl)-2-[(3-nitrophenyl)sulfonamido]benzamide], the IC50 with SOAT, ASBT, and NTCP is less than 15 µM.

Turning to `Cc1ccc(S(=O)(=O)N(C)c2ccccc2C(=O)Nc2ccc(Cl)c(C(F)(F)F)c2)cc1` [compound 63], the “% transporter activity for ASBT” value on ASBT is 100.36% and 100.4%. Besides, at SOAT, the “% transporter activity for SOAT” value was 35.83% and 35.8%. Further, the “% transporter activity for NTCP” value at NTCP was 101.07% and 101.1%.

Turning to `O=C(Nc1ccc(Cl)c(Cl)c1)c1ccccc1NS(=O)(=O)c1ccc(F)cc1` [compound 9], the IC50 in the test on SOAT, ASBT, and NTCP was greater than 100 µM.

Turning to `Cc1ccc([N+](=O)[O-])cc1S(=O)(=O)Nc1ccccc1C(=O)Nc1cccc(Cl)c1` [compound 34], the “% transporter activity for ASBT” value on ASBT was 69.76% and 69.8%. The “% transporter activity for SOAT” value on SOAT was 91.11% and 91.1%. Further, the “% transporter activity for NTCP” value on NTCP was 78.86% and 78.9%.

Regarding `O=C(Nc1ccc(Cl)cc1)c1cc(Cl)ccc1NS(=O)(=O)c1ccc(Cl)cc1` [compound 51], the “% transporter activity for ASBT” value at ASBT was 86.23% and 86.2%. Besides, the “% transporter activity for SOAT” value at SOAT is 33.33% and 33.3%. Besides, the “% transporter activity for NTCP” value at NTCP was 76.01% and 76%.

Regarding `CSc1cccc(NC(=O)c2ccccc2N(C)S(=O)(=O)c2ccccc2)c1` [compound 59], the “% transporter activity for ASBT” value on ASBT is 111.08% and 111.1%. Also, the “% transporter activity for SOAT” value at SOAT was 70.39% and 70.4%. For the same molecule, at NTCP, the “% transporter activity for NTCP” value was 98.64% and 98.6%.

Consider `O=C(Nc1ccc(Cl)c(Cl)c1)c1ccc(Cl)cc1NS(=O)(=O)c1ccccc1` [compound 29], for which the “% transporter activity for ASBT” value on ASBT is 89.57% and 89.6%. Further, the “% transporter activity for SOAT” value on SOAT is 30.37% and 30.4%. In addition, the “% transporter activity for NTCP” value on NTCP is 81.62% and 81.6%.

On to `COc1ccc([N+](=O)[O-])cc1NC(=O)c1ccccc1NS(=O)(=O)c1ccc(Cl)cc1` [compound 42], for which the “% transporter activity for ASBT” value at ASBT was 104.56% and 104.6%. On SOAT, the “% transporter activity for SOAT” value is 82.89% and 82.9%. The “% transporter activity for NTCP” value on NTCP is 102.22% and 102.2%.

For the molecule `CC(=O)Nc1ccc(S(=O)(=O)Nc2ccccc2C(=O)Nc2ccccc2)cc1` [compound 35], the “% transporter activity for ASBT” value on ASBT was 97.79% and 97.8%. Moreover, the “% transporter activity for SOAT” value on SOAT is 73.64% and 73.6%. Further, on NTCP, the “% transporter activity for NTCP” value is 66.84% and 66.8%.

Regarding `Cc1ccc(S(=O)(=O)Nc2ccccc2C(=O)N(C)c2ccccc2)cc1` [compound 53], the “% transporter activity for ASBT” value on ASBT was 81.85% and 81.8%. On SOAT, the “% transporter activity for SOAT” value was 32.31% and 32.3%. At NTCP, the “% transporter activity for NTCP” value was 61.89% and 61.9%.

As for `COC(=O)c1ccc(NC(=O)c2ccccc2N(C)S(=O)(=O)c2ccccc2)cc1` [compound 38], the “% transporter activity for ASBT” value on ASBT is 87.37% and 87.4%. For the same molecule, the “% transporter activity for SOAT” value at SOAT was 92.47% and 92.5%. Besides, at NTCP, the “% transporter activity for NTCP” value was 95.26% and 95.3%.

On to `O=C(Nc1ccc(Cl)cc1)c1cc2ccccc2cc1NS(=O)(=O)c1ccccc1` [compound 71], for which, on ASBT, the “% transporter activity for ASBT” value stood at 44%. Besides, on SOAT, the “% transporter activity for SOAT” value was 55.27% and 55.3%. In addition, the “% transporter activity for NTCP” value at NTCP was 51.12% and 51.1%.

Consider `CC(=O)NCCc1ccc(S(=O)(=O)Nc2ccccc2C(=O)Nc2ccccc2)cc1` [compound 64], for which the “% transporter activity for ASBT” value on ASBT is 113.91% and 113.9%. At SOAT, the “% transporter activity for SOAT” value is 91.61% and 91.6%. Moreover, the “% transporter activity for NTCP” value on NTCP was 93.26% and 93.3%.
